Test results taken from patent publication US9217012B2, “Inhibitors of protein tyrosine phosphatases” (Indiana University Research and Technology Corporation, priority 2009, dated 2015).
“And” between values parts separate entries of the source, which are not always exact repeats. Equal entries are not always repeated. “Also recorded” adds a separate entry of the source. Where two headings read alike, the source gives them in different places. Each block holds one compound with its values, some of them ahead of it.

Experiments:
TC-PTP = TC-PTP (Homo sapiens (Human), UniProt P17706); assay: PTP activity assay with pNPP substrate, TC-PTP; type: biochemical
Description: (§1) The PTP activity was assayed using p-nitrophenyl phosphate (pNPP) as a substrate in DMG buffer at 25° C. […] The reaction rate was measure using a SPECTRAMAX microplate spectrophotometer (Molecular Devices). For the determination of Km, the initial velocity and substrate concentration data were fitted to Michaelis-Menten equation using SIGMAPLOT. […] The assays were performed in 96-well plates. […] The reaction rate was measured using a Spectra Max Plus 384 Microplate Spectrophotometer (Molecular Devices). […] The reactions were incubated at room temperature for 30 min and quenched with 5N NaOH. The absorbance at 405 nm was read on the SpectraMax Plus 384 Microplate Spectrophotometer. For the reversibility test, the enzyme was incubated with the inhibitor at room temperature for 30 min before pNPP was added to initiate the reaction. The reaction was then incubated at room temperature for 30 min and quenched and read. […] Data were fitted using SigmaPlot Enzyme Kinetics Module (Systat Software, Inc.)

PTP1B = PTP1B (Homo sapiens (Human), UniProt P18031); assay: PTP activity assay with pNPP substrate, PTP1B; type: biochemical
Description: as §1

SHP2 = SHP2 (Homo sapiens (Human), UniProt Q06124); assay: PTP selectivity panel (pNPP), SHP2; type: biochemical; conditions: Table 3
Description: (§2) PTP activity was assayed using p-nitrophenyl phosphate (pNPP) as a substrate in DMG buffer (50 mM DMG, pH 7.0, 1 mM EDTA, 150 mM NaCl, 2 mM DTT, 0.1 mg/mL BSA) at 25° C. The assays were performed in 96-well plates. Normally, to determine the IC50 values, the reaction was initiated by the addition of enzyme (final concentration of 10 nM) to a reaction mixture (0.2 mL) containing 2 mM (Km for the substrate) pNPP with various concentrations of inhibitors. The reaction rate was measured using a Spectra Max Plus 384 Microplate Spectrophotometer (Molecular Devices). For compound 10, the final TC-PTP concentration was 0.04 nM. The reactions were incubated at room temperature for 30 min and quenched with 5N NaOH. The absorbance at 405 nm was read on the SpectraMax Plus 384 Microplate Spectrophotometer. For the reversibility test, the enzyme was incubated with the inhibitor at room temperature for 30 min before pNPP was added to initiate the reaction. The reaction was then incubated at room temperature for 30 min and quenched and read. […] To determine the mode of inhibition, the reactions were initiated by the additional enzyme (final concentration for TC-PTP was 0.4 nM and for PTP was 2 nM) to the reaction mixtures (0.2 mL) containing various concentrations of pNPP with different concentrations of the inhibitor. Data were fitted using SigmaPlot Enzyme Kinetics Module (Systat Software, Inc.)

He-PTP = He-PTP (Homo sapiens (Human), UniProt P35236); assay: PTP selectivity panel (pNPP), He-PTP; type: biochemical; conditions: Table 3
Description: as §2

Lyp = Lyp (Homo sapiens (Human), UniProt Q9Y2R2); assay: PTP selectivity panel (pNPP), Lyp; type: biochemical; conditions: Table 3
Description: as §2

FAP1 = FAP1 (Homo sapiens (Human), UniProt Q12923); assay: PTP selectivity panel (pNPP), FAP1; type: biochemical; conditions: Table 3
Description: as §2

PTP-Meg2 = PTP-Meg2 (Homo sapiens (Human), UniProt P43378); assay: PTP selectivity panel (pNPP), PTP-Meg2; type: biochemical; conditions: Table 3
Description: as §2

PTPα = PTPα (Homo sapiens (Human), UniProt P18433); assay: PTP selectivity panel (pNPP), PTPα; type: biochemical; conditions: Table 3
Description: as §2

LAR = LAR (Homo sapiens (Human), UniProt P10586); assay: PTP selectivity panel (pNPP), LAR; type: biochemical; conditions: Table 3
Description: as §2

CD45 = CD45 (Homo sapiens (Human), UniProt P08575); assay: PTP selectivity panel (pNPP), CD45; type: biochemical; conditions: Table 3
Description: as §2

Cdc14A = Cdc14A (Homo sapiens (Human), UniProt Q9UNH5); assay: PTP selectivity panel (pNPP), Cdc14A; type: biochemical; conditions: Table 3
Description: as §2

VHR = VHR (Homo sapiens (Human), UniProt P51452); assay: PTP selectivity panel (pNPP), VHR; type: biochemical; conditions: Table 3
Description: as §2

VHX = VHX (Homo sapiens (Human), UniProt Q9NRW4); assay: PTP selectivity panel (pNPP), VHX; type: biochemical; conditions: Table 3
Description: as §2

LMWPTP = LMWPTP (Homo sapiens (Human), UniProt P24666); assay: PTP selectivity panel (pNPP), LMWPTP; type: biochemical; conditions: Table 3
Description: as §2

[1] = system: EGFR phosphorylation in PTP1B−/− mouse embryo fibroblast cells; assay: Effect of TC-PTP inhibitor on EGFR phosphorylation (anti-pTyr immunoblot); type: cell-based; conditions: for increase in EGFR phosphorylation compared to DMSO: EGF 2 ng/ml 10 min
Description: To determine the cellular efficacy of 10, its effect on tyrosine phosphorylation of EGFR, a known substrate of TC-PTP (Tiganis et al., 1998; Klingler-Hoffmann et al., 2001; Mattila et al., 2005) was assessed using an antibody against pTyr. The cells were incubated with 10 for 2 hr and subsequently treated either with or without EGF (2 ng/ml) for 10 min.
PTP1B^−/− cells were treated with TC-PTP inhibitor at indicated concentration for 2 h before EGF treatment. After EGF treatment (2 ng/ml) for 10 min, cells were lysed in 10 mM HEPES, pH 7.4, 150 mM NaCl, 10% Glycerol, 10 mM sodium phosphate, 10 mM sodium fluoride, 1 mM sodium pervanadate, 1 mM benzamidine, 1% Triton X-100, 10 μg/ml leupeptin, and 5 μg/ml aprotinin. Cell lysates were cleared by centrifugation at 15,000 rpm for 10 min. The lysate protein concentration was estimated using the BCA protein assay kit (PIERCE). To detect EGFR phosphorylation levels, 10 μg of anti-EGFR antibody (CELL SIGNALING, #2232) was added to 1 mg of cell lysate and incubated at 4° C. for 2 h. […] of protein A/G-agarose beads were then added and incubated for another 2 h. After extensive washing, the protein complex was boiled with sample buffer, separated by SDS-PAGE, transferred electrophoretically to PVDF membrane, and immunoblotted with anti-pTyr antibodies (MILLIPORE, #05-1050) followed by incubation with horseradish peroxidase-conjugated secondary antibodies. The blots were developed by the enhanced chemiluminescence technique (ECL kit, AMERSHAM BIOSCIENCES).
PTP1B^−/− mouse embryo fibroblast cells were treated with TC-PTP inhibitor at the indicated concentration for 2 h prior to EGF treatment. After EGF treatment (2 ng/mL) for 10 min, cells were lysed in 10 mM HNEPES, pH 7.4, […], 10% Glycerol, 10 mM sodium phosphate, 10 mM sodium fluoride, 1 mM sodium pervanadate, 1 mM benzamidine, 1% Triton X-100, 10 μg/mL leupeptin, and 5 μg/mL aprotinin. Cell lysates were cleared by centrifugation at 15 000 rpm for 10 min. The lysate protein concentration was estimated using the BAC protein assay kit (Pierce). To detect EGFR phosphorylation levels, 10 μg of anti-EGFR antibody (Cell Signaling, #2232) were added to 1 mg of cell lysate and incubated at 4° C. for 2 h. 20 μL of protein A/G-agarose beads were then added and incubated for another 2 hr. After extensive washing, the protein complex was boiled with sample buffer, separated by SDS-PAGE, transferred electrophoretically to a PVDF membrane, and immunoblotted with anti-pTyr antibodies (Millipore, #5-1050) followed by incubation with horseradish peroxidase conjugalated secondary antibodies. The blots were developed by enhanced chemiluminescence technique (ECL kit, Amersham Biosciences).
The cellular efficacy of compound 10 was assessed by examining its effect on tyrosine phosphorylation of EGFR, a known substrate of TC-PTP. Referring now to FIG. 2 B. PTP1B^−/− mouse embryo filbroblast cells were incubated with compound 10 at various concentrations for 2 h and subsequently treated either with or without EGF (2 ng/mL) for 10 min Inhibition of TC-PTP is expected to enhance endrogenous levels of phosphorylated EGFR. […] Remarkably, the phosphorylated form of EGFR is increased nearly 2-fold even at an inhibitor concentration of 5 nM (1.2×Ki).

[2] = system: Src phosphorylation in PTP1B−/− mouse embryo fibroblast cells; assay: Effect on Src phosphorylation (pSrc416, pSrc527 immunoblot); type: cell-based; conditions: 2 h treatment
Description: To study the effect of compound 10 on Src phosphorylation, PTP1B^−/− mouse embryo fibroblast cells were grown to 80% confluence before being treated with TC-PTP inhibitor 10 for 2 h. Cells were lysed, and the lysates were cleared by centrifugation at 15 000 rpm for 10 min. 30 μg of total proteins were boiled with sample buffer, separated by SDS-PAGE, transferred electrophoretically to a PVDF membrane, and immunoblotted with anti-pSrc416, anti-pSrc527 antibodies (Invitrogen 44-660G and 44-662G) and antic-Src antibody (Cell Singling Technology #2108) followed by incubation with horseradish peroxidase conjugated secondary antibodies. The blots were developed by the enhanced chemiluminesence technique (ECL kit, Amersham Biosciences).
To further investigate the specificity of compound 10 inside the cells, the ability of compound 10 to effect Src kinase phosphorylation within the same cells was measured. Src activity is regulated by phosphorylation at two distinct tyrosine residues. Autophosphorylation of Tyr416 in the kinase domain activates Src, while phosphorylation of Tyr527 in the C-terminal tail by the C-terminal Src kinase (Csk) blocks Src activity. Previous studies have shown that PTP1B can remove the inhibitory phosphate from pSrc527, while TC-PTP is capable of dephosphorylating pSrc416 (van Vilet et al., 2005; Bjorge, et al., 2000).

[3] = system: CD4 T-cells recovered from patients with type 1 diabetes; assay: pSTAT5 response to IL-2 in CD4 T-cells from type 1 diabetes patients; type: cell-based, human; conditions: cells with elevated TC-PTP pre-treated with compound
Description: An increase in expression of TC-PTP type 1 diabetic subject correlates with a decrease in STAT5 activation (Long et al., 2010). The protein expression levels of STAT5, JAK1, JAK3, and the negative regulator, TC-PTP, and CD4 T-cells of control and type 1 diabetic subjects were measured. […] No differences were found in STAT5, JAK3, or JAK1 protein expression levels between cells from the control group and the group diagnosed with type 1 diabetes. In contrast, TC-PTP expression was uniform in cells recovered from the control group but was increased overall in cells collected from patients with type 1 diabetes. […] This increased expression of TC-PTP correlated with decreased levels of pSTAT5 levels measured after exposure to IL-2.

Chain of PTP1B (P18031 whole entry, species assumed): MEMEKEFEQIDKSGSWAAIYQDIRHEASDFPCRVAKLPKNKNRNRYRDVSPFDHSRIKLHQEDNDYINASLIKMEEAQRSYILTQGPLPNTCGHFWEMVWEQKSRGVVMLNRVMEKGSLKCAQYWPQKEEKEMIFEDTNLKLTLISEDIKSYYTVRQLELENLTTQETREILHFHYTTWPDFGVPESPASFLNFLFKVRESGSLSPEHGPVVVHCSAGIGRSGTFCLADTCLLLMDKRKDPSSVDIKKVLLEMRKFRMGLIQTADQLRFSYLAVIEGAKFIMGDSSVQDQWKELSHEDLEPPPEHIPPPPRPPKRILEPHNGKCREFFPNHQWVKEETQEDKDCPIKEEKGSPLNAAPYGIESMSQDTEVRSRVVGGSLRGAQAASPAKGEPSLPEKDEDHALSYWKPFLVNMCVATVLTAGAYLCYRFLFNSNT
Chain of TC-PTP (P17706 whole entry): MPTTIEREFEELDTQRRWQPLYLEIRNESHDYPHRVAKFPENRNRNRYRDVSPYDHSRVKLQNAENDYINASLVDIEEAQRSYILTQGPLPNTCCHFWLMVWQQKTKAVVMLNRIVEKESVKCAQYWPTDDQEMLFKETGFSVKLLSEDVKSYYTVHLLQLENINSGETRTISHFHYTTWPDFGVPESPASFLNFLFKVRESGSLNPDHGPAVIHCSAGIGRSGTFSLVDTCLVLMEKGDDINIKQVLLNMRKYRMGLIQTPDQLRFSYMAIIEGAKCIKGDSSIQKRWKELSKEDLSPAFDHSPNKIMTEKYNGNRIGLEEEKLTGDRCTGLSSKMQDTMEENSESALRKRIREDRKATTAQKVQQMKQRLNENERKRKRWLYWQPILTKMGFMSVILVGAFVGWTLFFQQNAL
Chain of He-PTP (P35236 whole entry, species assumed): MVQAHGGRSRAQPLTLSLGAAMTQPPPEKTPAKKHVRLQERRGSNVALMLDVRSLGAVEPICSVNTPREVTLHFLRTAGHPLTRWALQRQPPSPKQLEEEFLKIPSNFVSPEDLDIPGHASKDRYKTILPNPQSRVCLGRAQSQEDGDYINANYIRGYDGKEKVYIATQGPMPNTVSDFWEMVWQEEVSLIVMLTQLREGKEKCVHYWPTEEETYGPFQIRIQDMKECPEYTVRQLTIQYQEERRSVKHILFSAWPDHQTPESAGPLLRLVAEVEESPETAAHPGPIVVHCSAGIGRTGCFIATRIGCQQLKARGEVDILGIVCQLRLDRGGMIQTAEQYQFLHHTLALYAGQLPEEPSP
Chain of LMWPTP (P24666 whole entry, species assumed): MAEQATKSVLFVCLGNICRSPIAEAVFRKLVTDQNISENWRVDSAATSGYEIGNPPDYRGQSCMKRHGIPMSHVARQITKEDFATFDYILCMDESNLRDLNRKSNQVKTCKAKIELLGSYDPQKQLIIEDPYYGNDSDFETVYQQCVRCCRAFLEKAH
Chain of VHX (Q9NRW4 whole entry): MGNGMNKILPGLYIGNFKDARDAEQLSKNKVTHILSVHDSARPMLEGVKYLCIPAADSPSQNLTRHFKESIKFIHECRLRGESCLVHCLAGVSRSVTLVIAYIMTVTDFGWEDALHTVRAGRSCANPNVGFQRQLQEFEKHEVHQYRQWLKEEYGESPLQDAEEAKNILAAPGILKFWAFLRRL
Chain of LAR (P10586 whole entry, looked up, species assumed): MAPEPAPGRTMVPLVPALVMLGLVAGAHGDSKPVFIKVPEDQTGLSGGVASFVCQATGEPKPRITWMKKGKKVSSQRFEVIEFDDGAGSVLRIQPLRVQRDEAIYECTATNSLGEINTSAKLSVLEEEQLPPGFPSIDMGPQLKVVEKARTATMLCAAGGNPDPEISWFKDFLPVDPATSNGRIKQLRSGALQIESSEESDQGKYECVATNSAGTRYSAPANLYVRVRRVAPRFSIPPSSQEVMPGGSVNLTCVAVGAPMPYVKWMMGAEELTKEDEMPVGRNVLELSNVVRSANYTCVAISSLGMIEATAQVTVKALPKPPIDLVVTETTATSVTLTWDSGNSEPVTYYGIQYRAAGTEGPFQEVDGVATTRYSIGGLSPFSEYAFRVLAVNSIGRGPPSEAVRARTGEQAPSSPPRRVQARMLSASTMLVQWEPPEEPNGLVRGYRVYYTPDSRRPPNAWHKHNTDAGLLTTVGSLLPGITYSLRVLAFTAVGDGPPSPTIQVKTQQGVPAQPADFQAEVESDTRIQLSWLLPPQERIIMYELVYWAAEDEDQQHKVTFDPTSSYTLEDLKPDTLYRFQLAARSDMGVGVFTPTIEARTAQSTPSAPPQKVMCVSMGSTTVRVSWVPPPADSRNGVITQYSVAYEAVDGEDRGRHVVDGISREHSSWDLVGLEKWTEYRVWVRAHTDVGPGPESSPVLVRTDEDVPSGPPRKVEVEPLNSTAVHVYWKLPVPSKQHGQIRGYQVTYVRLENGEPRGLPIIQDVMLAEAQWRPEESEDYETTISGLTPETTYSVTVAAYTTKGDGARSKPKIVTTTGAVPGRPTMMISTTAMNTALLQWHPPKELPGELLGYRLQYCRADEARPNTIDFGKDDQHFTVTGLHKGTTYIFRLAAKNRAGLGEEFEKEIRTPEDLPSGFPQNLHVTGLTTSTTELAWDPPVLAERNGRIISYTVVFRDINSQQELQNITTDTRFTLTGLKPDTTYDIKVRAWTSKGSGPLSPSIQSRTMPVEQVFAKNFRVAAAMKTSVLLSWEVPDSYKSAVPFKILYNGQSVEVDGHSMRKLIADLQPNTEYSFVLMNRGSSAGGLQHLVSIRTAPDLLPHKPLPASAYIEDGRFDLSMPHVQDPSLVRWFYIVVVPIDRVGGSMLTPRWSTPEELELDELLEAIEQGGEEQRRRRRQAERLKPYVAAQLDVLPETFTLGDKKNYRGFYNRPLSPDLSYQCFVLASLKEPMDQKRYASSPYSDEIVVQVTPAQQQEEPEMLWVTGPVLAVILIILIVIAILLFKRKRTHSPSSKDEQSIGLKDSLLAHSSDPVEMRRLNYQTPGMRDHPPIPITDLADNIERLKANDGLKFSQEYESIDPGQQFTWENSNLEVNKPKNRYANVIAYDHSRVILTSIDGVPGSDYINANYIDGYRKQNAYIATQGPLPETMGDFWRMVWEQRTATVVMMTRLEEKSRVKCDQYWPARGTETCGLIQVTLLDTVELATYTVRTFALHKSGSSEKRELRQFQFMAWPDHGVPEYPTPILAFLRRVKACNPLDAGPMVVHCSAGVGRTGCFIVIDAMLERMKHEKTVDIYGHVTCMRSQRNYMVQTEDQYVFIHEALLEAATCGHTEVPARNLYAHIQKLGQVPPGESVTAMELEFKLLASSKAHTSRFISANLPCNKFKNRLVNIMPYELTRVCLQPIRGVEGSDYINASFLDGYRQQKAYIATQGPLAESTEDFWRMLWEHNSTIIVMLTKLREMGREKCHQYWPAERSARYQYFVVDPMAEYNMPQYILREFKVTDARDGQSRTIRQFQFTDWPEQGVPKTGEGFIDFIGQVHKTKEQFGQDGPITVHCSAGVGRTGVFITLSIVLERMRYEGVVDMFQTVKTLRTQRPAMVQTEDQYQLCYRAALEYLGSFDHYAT
Chain of PTP-Meg2 (P43378 whole entry): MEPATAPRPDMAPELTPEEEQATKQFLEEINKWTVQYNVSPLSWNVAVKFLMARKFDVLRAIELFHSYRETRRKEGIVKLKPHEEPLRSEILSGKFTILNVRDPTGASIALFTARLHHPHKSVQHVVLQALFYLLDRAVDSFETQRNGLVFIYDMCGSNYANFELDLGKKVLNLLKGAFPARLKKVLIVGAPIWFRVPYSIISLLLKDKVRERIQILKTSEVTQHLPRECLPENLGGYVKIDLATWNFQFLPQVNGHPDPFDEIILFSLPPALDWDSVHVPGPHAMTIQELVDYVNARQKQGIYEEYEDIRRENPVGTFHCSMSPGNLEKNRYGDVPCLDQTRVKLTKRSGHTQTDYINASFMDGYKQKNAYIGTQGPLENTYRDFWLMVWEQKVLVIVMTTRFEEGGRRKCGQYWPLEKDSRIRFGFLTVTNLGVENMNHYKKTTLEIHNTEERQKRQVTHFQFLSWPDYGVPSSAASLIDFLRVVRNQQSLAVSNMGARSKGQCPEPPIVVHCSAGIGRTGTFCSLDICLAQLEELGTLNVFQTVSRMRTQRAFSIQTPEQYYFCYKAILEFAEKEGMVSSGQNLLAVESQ
Chain of Cdc14A (Q9UNH5 whole entry, species assumed): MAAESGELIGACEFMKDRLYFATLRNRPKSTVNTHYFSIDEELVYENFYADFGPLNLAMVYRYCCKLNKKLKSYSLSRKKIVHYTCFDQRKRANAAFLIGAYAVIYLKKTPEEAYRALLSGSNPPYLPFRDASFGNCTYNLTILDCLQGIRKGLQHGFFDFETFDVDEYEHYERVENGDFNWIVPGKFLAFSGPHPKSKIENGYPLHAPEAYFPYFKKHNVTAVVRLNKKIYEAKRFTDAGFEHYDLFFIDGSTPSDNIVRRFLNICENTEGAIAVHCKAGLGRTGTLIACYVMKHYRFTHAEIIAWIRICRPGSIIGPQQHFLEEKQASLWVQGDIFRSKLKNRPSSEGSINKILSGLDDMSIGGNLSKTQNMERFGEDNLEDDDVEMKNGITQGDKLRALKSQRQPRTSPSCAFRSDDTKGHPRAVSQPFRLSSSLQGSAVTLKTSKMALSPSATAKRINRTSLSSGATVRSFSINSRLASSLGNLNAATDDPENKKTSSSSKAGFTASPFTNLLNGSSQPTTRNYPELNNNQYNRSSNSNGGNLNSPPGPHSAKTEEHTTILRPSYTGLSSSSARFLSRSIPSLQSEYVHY
Chain of VHR (P51452 whole entry, species assumed): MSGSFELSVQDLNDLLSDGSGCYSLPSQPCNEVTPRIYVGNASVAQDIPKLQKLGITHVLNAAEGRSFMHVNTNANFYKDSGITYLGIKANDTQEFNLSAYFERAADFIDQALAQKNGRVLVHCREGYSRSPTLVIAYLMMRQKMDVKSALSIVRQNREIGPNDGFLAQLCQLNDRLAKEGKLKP

Structure (SMILES): CCc1ccc(C(=O)NCCCCC(NC(=O)C(Cc2ccc(C(F)(F)P(=O)(O)O)cc2)NC(=O)C(Cc2ccccc2)NC(=O)COC2CC(C)CCC2C(C)C)C(N)=O)cc1 (stereo not drawn) [Compound 10]
IC50 (TC-PTP; IC50 with TC-PTP preincubation, enzyme preincubated with inhibitor 30 min, 0.04 nM TC-PTP): 0.0087 ± 0.0014 µM
IC50 (TC-PTP; IC50 without TC-PTP preincubation, no preincubation, 0.04 nM TC-PTP): 0.0092 ± 0.0014 µM
selectivity for TC-PTP over PTP1B (TC-PTP; TC-PTP versus PTP1B): 8 fold and 5.6 fold
Ki (TC-PTP; Table 3, Example 13, read-out: Ki (TC-PTP)): 0.0043 ± 0.0002 µM
mode of inhibition of TC-PTP (TC-PTP; kinetic analysis): reversible TC-PTP inhibitor; also recorded: reversible and competitive inhibitor
Ki (TC-PTP; tight binding inhibition equation, Table 1, read-out: Ki for TC-PTP): 0.0041 ± 0.0002 µM
selectivity versus a panel of PTPs (TC-PTP; versus SHP2, Lyp, HePTP, PTP-Meg2, FAP1, CD45, LAR, PTPa, VHR, VHX, CDC14A, low molecular weight PTP): more than 200 fold
Ki (PTP1B; Table 3, Example 13, read-out: Ki (PTP1B)): 0.034 ± 0.0028 µM
mode of inhibition of PTP1B (PTP1B; kinetic analysis): reversible and competitive inhibitor
Ki (PTP1B; tight binding inhibition equation, Table 1, read-out: Ki for PTP1B): 0.0231 ± 0.0007 µM
Ki (SHP2): > 1 µM
Ki (He-PTP): > 1 µM
Ki (Lyp): > 1 µM
Ki (FAP1): > 1 µM
Ki (PTP-Meg2): > 1 µM
Ki (PTPα): > 1 µM
Ki (LAR): > 1 µM
Ki (CD45): > 1 µM
Ki (Cdc14A): > 1 µM
Ki (VHR): > 1 µM
Ki (VHX): > 1 µM
Ki (LMWPTP): > 1 µM
effect on EGFR phosphorylation, dose dependence ([1]; 0-50 nM, 2 h): enhanced EGFR phosphorylaltion in a dose-dependent fashion; also recorded: augmented EGFR phosphorylation in a dose dependent manner
increase in EGFR phosphorylation compared to DMSO ([1]; 5 nM, 2 h): ~2 fold and 1.9 fold
increase in EGFR phosphorylation compared to DMSO ([1]; 10 nM, 2 h): 3.4 fold
increase in EGFR phosphorylation compared to DMSO ([1]; 20 nM, 2 h): 3.9 fold
increase in EGFR phosphorylation compared to DMSO ([1]; 50 nM, 2 h): 5.0 fold
pSrc416 phosphorylation [2]: dose-dependent increase
pSrc527 phosphorylation [2]: no significant change
rescue of decreased response to IL-2 (pSTAT5) [3]: rescued in a concentration dependent manner

Structure (SMILES): CCc1ccc(C(=O)NCCCCC(NC(=O)C(Cc2ccccc2)NC(=O)C(Cc2ccccc2)NC(=O)COC2CC(C)CCC2C(C)C)C(N)=O)cc1 (stereo not drawn) [Compound 11]
effect on EGFR phosphorylation ([1]; 200 nM): no effect

IC50 (TC-PTP; known competitive ligand, read-out: IC50 for TC-PTP): 20 µM
IC50 (PTP1B; known competitive ligand): 20 µM
Structure (SMILES): O=C(N[C@@H](Cc1ccc(C(F)(F)P(=O)(O)O)cc1)C(=O)O)OCC1c2ccccc2-c2ccccc21 [Fmoc-F2Pmp-OH, reference compound]
